# Publication PMC5218480 (PLoS ONE, 2017)
# System: MV-4-11 cells
# Experiment: Gene expression microarray analysis (Affymetrix PrimeView) and GSEA
# Type: cell-based, human
# Set-up: RFU PODN (11730768_x_at) / Fold change /veh PODN (11730768_x_at) / RFU LINC00158 (11744669_a_at) / Fold change /veh LINC00158 (11744669_a_at) / RFU DUSP10 (11751237_a_at) / Fold change /veh DUSP10 (11751237_a_at) / RFU ID3 (11757404_x_at) / Fold change /veh ID3 (11757404_x_at) / RFU PLEKHG5 (11737974_s_at) / Fold change /veh PLEKHG5 (11737974_s_at) / RFU LRRC4B (11730491_at) / Fold change /veh LRRC4B (11730491_at) / RFU GIMAP4 (11747438_a_at) / Fold change /veh GIMAP4 (11747438_a_at) / RFU KRT8 (11758183_x_at) / Fold change /veh KRT8 (11758183_x_at) / RFU CNN1 (11734310_a_at) / Fold change /veh CNN1 (11734310_a_at) / RFU VPS37D (11726825_at) / Fold change /veh VPS37D (11726825_at) / RFU C10orf10 (11716522_x_at) / Fold change /veh C10orf10 (11716522_x_at) / RFU KIR2DL2 /// KIR2DL4 /// KIR2DL5A /// KIR2DL5B /// KIR2DS1 /// KIR2DS2 /// KIR2DS3 /// KIR2DS4 /// KIR3DL3 /// KIR3DL3 /// KIR3DS1 (11738374_at) / Fold change /veh KIR2DL2 /// KIR2DL4 /// KIR2DL5A /// KIR2DL5B /// KIR2DS1 /// KIR2DS2 /// KIR2DS3 /// KIR2DS4 /// KIR3DL3 /// KIR3DL3 /// KIR3DS1 (11738374_at) / RFU C1QL1 (11718748_at) / Fold change /veh C1QL1 (11718748_at) / RFU TMPRSS4 (11747572_a_at) / Fold change /veh TMPRSS4 (11747572_a_at) / RFU HAMP (11756126_x_at) / Fold change /veh HAMP (11756126_x_at) / RFU RNFT2 (11725882_a_at) / Fold change /veh RNFT2 (11725882_a_at) / RFU NR4A2 (11747474_a_at) / Fold change /veh NR4A2 (11747474_a_at) / RFU ABCC12 (11746883_a_at) / Fold change /veh ABCC12 (11746883_a_at) / RFU TMEM136 (11760407_x_at) / Fold change /veh TMEM136 (11760407_x_at) / RFU CLDN22 /// WWC2 (11732394_at) / Fold change /veh CLDN22 /// WWC2 (11732394_at) / RFU HLA-DPB1 (11760878_x_at) / Fold change /veh HLA-DPB1 (11760878_x_at) / RFU SPINT1 (11716480_a_at) / Fold change /veh SPINT1 (11716480_a_at) / RFU GAP43 (11754022_s_at) / Fold change /veh GAP43 (11754022_s_at) / RFU A4GNT (11735810_at) / Fold change /veh A4GNT (11735810_at) / RFU PRB3 (11715151_x_at) / Fold change /veh PRB3 (11715151_x_at) / RFU TUBB4B (11761932_at) / Fold change /veh TUBB4B (11761932_at) / RFU CAPN14 (11732068_a_at) / Fold change /veh CAPN14 (11732068_a_at) / RFU TMCC2 (11721928_a_at) / Fold change /veh TMCC2 (11721928_a_at) / RFU IRGQ (11745062_a_at) / Fold change /veh IRGQ (11745062_a_at) / RFU FAM174B (11720279_a_at) / Fold change /veh FAM174B (11720279_a_at) / RFU TMPRSS4 (11748680_a_at) / Fold change /veh TMPRSS4 (11748680_a_at) / RFU FAM212B (11763350_a_at) / Fold change /veh FAM212B (11763350_a_at) / RFU PLEKHG5 (11743358_a_at) / Fold change /veh PLEKHG5 (11743358_a_at) / RFU ZSCAN30 (11745921_a_at) / Fold change /veh ZSCAN30 (11745921_a_at) / RFU CMKLR1 (11741424_a_at) / Fold change /veh CMKLR1 (11741424_a_at) / RFU LOC101060620 /// MAPK8IP1 (11723275_at) / Fold change /veh LOC101060620 /// MAPK8IP1 (11723275_at) / RFU SPTSSB (11747773_x_at) / Fold change /veh SPTSSB (11747773_x_at) / RFU PRSS12 (11739890_at) / Fold change /veh PRSS12 (11739890_at) / RFU BIN1 (11741810_x_at) / Fold change /veh BIN1 (11741810_x_at) / RFU WNT11 (11732464_a_at) / Fold change /veh WNT11 (11732464_a_at) / RFU C10orf10 (11716521_a_at) / Fold change /veh C10orf10 (11716521_a_at) / RFU C5orf56 (11738089_at) / Fold change /veh C5orf56 (11738089_at) / RFU CYB561 (11721691_x_at) / Fold change /veh CYB561 (11721691_x_at) / RFU ANKRD19P (11752326_a_at) / Fold change /veh ANKRD19P (11752326_a_at) / RFU OR2T12 /// OR2T33 /// OR2T8 (11738714_s_at) / Fold change /veh OR2T12 /// OR2T33 /// OR2T8 (11738714_s_at) / RFU VCAN (11748164_a_at) / Fold change /veh VCAN (11748164_a_at) / RFU JSRP1 (11732532_at) / Fold change /veh JSRP1 (11732532_at) / RFU KRTAP10-11 (11738290_x_at) / Fold change /veh KRTAP10-11 (11738290_x_at) / RFU MYO3A (11730013_a_at) / Fold change /veh MYO3A (11730013_a_at) / RFU EBF3 (11725865_a_at) / Fold change /veh EBF3 (11725865_a_at) / RFU CAMK2N1 (11719241_x_at) / Fold change /veh CAMK2N1 (11719241_x_at) / RFU C5orf56 (11738088_a_at) / Fold change /veh C5orf56 (11738088_a_at) / RFU OLFML3 (11715873_a_at) / Fold change /veh OLFML3 (11715873_a_at) / RFU LOC100653217 /// NTM (11731650_a_at) / Fold change /veh LOC100653217 /// NTM (11731650_a_at) / RFU MAPK11 (11762145_a_at) / Fold change /veh MAPK11 (11762145_a_at) / RFU FIZ1 (11724087_x_at) / Fold change /veh FIZ1 (11724087_x_at) / RFU OASL (11726364_x_at) / Fold change /veh OASL (11726364_x_at) / RFU SOX15 (11748057_x_at) / Fold change /veh SOX15 (11748057_x_at) / RFU CD79A (11719716_a_at) / Fold change /veh CD79A (11719716_a_at) / RFU HIST1H1D (11736915_at) / Fold change /veh HIST1H1D (11736915_at) / RFU CASKIN2 (11723855_a_at) / Fold change /veh CASKIN2 (11723855_a_at) / RFU LOC730098 (11760151_x_at) / Fold change /veh LOC730098 (11760151_x_at) / RFU OR4N2 (11742367_at) / Fold change /veh OR4N2 (11742367_at) / RFU PRRT2 (11749266_a_at) / Fold change /veh PRRT2 (11749266_a_at) / RFU SNX32 (11753110_a_at) / Fold change /veh SNX32 (11753110_a_at) / RFU CDHR5 (11726645_a_at) / Fold change /veh CDHR5 (11726645_a_at) / RFU RCAN1 (11760418_a_at) / Fold change /veh RCAN1 (11760418_a_at) / RFU FAM167A (11723789_a_at) / Fold change /veh FAM167A (11723789_a_at) / RFU FAM26E (11764081_at) / Fold change /veh FAM26E (11764081_at) / RFU ISYNA1 (11749810_s_at) / Fold change /veh ISYNA1 (11749810_s_at) / RFU ACY1 (11761880_at) / Fold change /veh ACY1 (11761880_at) / RFU 11764098_at / Fold change /veh 11764098_at / RFU SAMD14 (11745864_x_at) / Fold change /veh SAMD14 (11745864_x_at) / RFU NPB (11741838_a_at) / Fold change /veh NPB (11741838_a_at) / RFU TMPRSS6 (11731388_a_at) / Fold change /veh TMPRSS6 (11731388_a_at) / RFU KRTAP10-2 (11738614_at) / Fold change /veh KRTAP10-2 (11738614_at) / RFU ARHGAP8 /// PRR5-ARHGAP8 (11727945_x_at) / Fold change /veh ARHGAP8 /// PRR5-ARHGAP8 (11727945_x_at) / RFU KRTAP5-7 /// NADSYN1 (11734609_at) / Fold change /veh KRTAP5-7 /// NADSYN1 (11734609_at) / RFU RASL12 (11751679_a_at) / Fold change /veh RASL12 (11751679_a_at) / RFU CDKN2B (11736163_a_at) / Fold change /veh CDKN2B (11736163_a_at) / RFU PRF1 (11729649_at) / Fold change /veh PRF1 (11729649_at) / RFU, ZNF638 /// ZNF638-IT1 / Fold change vs veh, ZNF638 /// ZNF638-IT1 / RFU, PANK3 / Fold change vs veh, PANK3 / RFU, SH3YL1 / Fold change vs veh, SH3YL1 / RFU, ZEB2 / Fold change vs veh, ZEB2 / RFU, NRIP1 / Fold change vs veh, NRIP1 / RFU, PTTG1IP / Fold change vs veh, PTTG1IP / RFU, CAPN2 / Fold change vs veh, CAPN2 / RFU, MED14 / Fold change vs veh, MED14 / RFU, SNORA58 / Fold change vs veh, SNORA58 / RFU, C1orf63 / Fold change vs veh, C1orf63 / RFU, LRRFIP1 / Fold change vs veh, LRRFIP1 / RFU, NDUFAF7 / Fold change vs veh, NDUFAF7 / RFU, SLC12A2 / Fold change vs veh, SLC12A2 / RFU, IBTK / Fold change vs veh, IBTK / RFU, ESF1 / Fold change vs veh, ESF1 / Fold change vs veh, TMEM50B / RFU, TAOK1 / Fold change vs veh, TAOK1 / RFU, ACBD3 / Fold change vs veh, ACBD3 / RFU, TMA16 / Fold change vs veh, TMA16 / RFU, RWDD3 / Fold change vs veh, RWDD3 / RFU, BCAT1 / Fold change vs veh, BCAT1 / RFU, EDEM3 / Fold change vs veh, EDEM3 / RFU, TMEM33 / Fold change vs veh, TMEM33 / RFU, WDR75 / Fold change vs veh, WDR75 / RFU, AHCTF1 / Fold change vs veh, AHCTF1 / RFU, TFRC / Fold change vs veh, TFRC / RFU, ZDHHC17 / Fold change vs veh, ZDHHC17 / RFU, NOM1 / Fold change vs veh, NOM1 / RFU, ARL8B / Fold change vs veh, ARL8B / RFU, ZBTB11 / Fold change vs veh, ZBTB11 / RFU, TAMM41 / Fold change vs veh, TAMM41 / RFU, KIAA1704 /// LOC100996395 / Fold change vs veh, KIAA1704 /// LOC100996395 / RFU, ING1 / Fold change vs veh, ING1 / RFU, TRMT61B / Fold change vs veh, TRMT61B / RFU, FUBP3 / Fold change vs veh, FUBP3 / RFU, TP53 / Fold change vs veh, TP53 / RFU, TNKS2 / Fold change vs veh, TNKS2 / RFU, ZFP14 / Fold change vs veh, ZFP14 / RFU, ACTR2 / Fold change vs veh, ACTR2 / RFU, PPP3R1 / Fold change vs veh, PPP3R1 / RFU, PIK3R1 / Fold change vs veh, PIK3R1 / RFU, HNRNPA1 / Fold change vs veh, HNRNPA1 / RFU, RNF170 / Fold change vs veh, RNF170 / RFU, ZNF28 / Fold change vs veh, ZNF28 / RFU, RNGTT / Fold change vs veh, RNGTT / RFU, OGT / Fold change vs veh, OGT / RFU, BRD1 / Fold change vs veh, BRD1 / RFU, MARS / Fold change vs veh, MARS / RFU, ZNF655 / Fold change vs veh, ZNF655 / RFU, FAHD1 / Fold change vs veh, FAHD1 / RFU, BDP1 / Fold change vs veh, BDP1 / RFU, LRRCC1 / Fold change vs veh, LRRCC1 / RFU, ARID1A / Fold change vs veh, ARID1A / RFU, ZNF146 / Fold change vs veh, ZNF146 / RFU, ZNF330 / Fold change vs veh, ZNF330 / RFU, GPN3 / Fold change vs veh, GPN3 / RFU, C9orf123 / Fold change vs veh, C9orf123 / RFU, N4BP2L2 / Fold change vs veh, N4BP2L2 / RFU, ARFIP1 / Fold change vs veh, ARFIP1 / RFU, FAM179B / Fold change vs veh, FAM179B / RFU, BCL10 / Fold change vs veh, BCL10 / RFU, UHRF1BP1L / Fold change vs veh, UHRF1BP1L / RFU, BET1 / Fold change vs veh, BET1 / RFU, CNOT2 / Fold change vs veh, CNOT2 / RFU, ZNF268 / Fold change vs veh, ZNF268 / Fold change vs veh, ZNF507 / RFU, DGCR2 / Fold change vs veh, DGCR2 / RFU, WDSUB1 / Fold change vs veh, WDSUB1 / Fold change vs veh, HSP90B1 /// MIR3652 / RFU, ADSS / Fold change vs veh, ADSS / RFU, GK / Fold change vs veh, GK / RFU, ZNF148 / Fold change vs veh, ZNF148 / RFU, TAF9 / Fold change vs veh, TAF9 / RFU, SLC1A5 / Fold change vs veh, SLC1A5 / RFU, SLMO2 / Fold change vs veh, SLMO2 / RFU, ABCC4 / Fold change vs veh, ABCC4 / RFU, LOC101060439 /// RAP1B / Fold change vs veh, LOC101060439 /// RAP1B / RFU, RFX7 / Fold change vs veh, RFX7 / RFU, GTPBP10 / Fold change vs veh, GTPBP10 / RFU, CNEP1R1 / Fold change vs veh, CNEP1R1 / RFU, BIVM-ERCC5 /// ERCC5 / Fold change vs veh, BIVM-ERCC5 /// ERCC5 / RFU, ILF3 / Fold change vs veh, ILF3 / RFU 11762660_at / Fold change /veh 11762660_at / RFU VCAN (11757783_s_at) / Fold change /veh VCAN (11757783_s_at) / RFU DDX43 (11728927_at) / Fold change /veh DDX43 (11728927_at) / RFU KRT8 (11758188_x_at) / Fold change /veh KRT8 (11758188_x_at) / RFU NKD1 (11759106_at) / Fold change /veh NKD1 (11759106_at) / RFU SRD5A1 (11742802_a_at) / Fold change /veh SRD5A1 (11742802_a_at) / RFU TPSAB1 /// TPSB2 (11721975_s_at) / Fold change /veh TPSAB1 /// TPSB2 (11721975_s_at) / RFU GSTM3 (11746129_a_at) / Fold change /veh GSTM3 (11746129_a_at) / RFU IL23R (11737362_x_at) / Fold change /veh IL23R (11737362_x_at) / RFU TMEM51 (11727254_a_at) / Fold change /veh TMEM51 (11727254_a_at) / RFU PIWIL2 (11732686_x_at) / Fold change /veh PIWIL2 (11732686_x_at) / RFU ORM1 (11744905_x_at) / Fold change /veh ORM1 (11744905_x_at) / RFU CCDC152 (11743942_at) / Fold change /veh CCDC152 (11743942_at) / RFU ECM1 (11717891_a_at) / Fold change /veh ECM1 (11717891_a_at) / RFU IL23R (11748794_a_at) / Fold change /veh IL23R (11748794_a_at) / RFU TNFAIP8L3 (11732012_x_at) / Fold change /veh TNFAIP8L3 (11732012_x_at) / RFU MBOAT4 (11741988_at) / Fold change /veh MBOAT4 (11741988_at) / RFU 11764193_at / Fold change /veh 11764193_at / RFU TMEM53 (11763286_at) / Fold change /veh TMEM53 (11763286_at) / RFU MAGEB2 (11727129_at) / Fold change /veh MAGEB2 (11727129_at) / RFU TMEM200A (11744735_a_at) / Fold change /veh TMEM200A (11744735_a_at) / RFU CCDC152 (11751479_a_at) / Fold change /veh CCDC152 (11751479_a_at) / RFU FAM211A (11726209_a_at) / Fold change /veh FAM211A (11726209_a_at) / RFU RGS16 (11746705_a_at) / Fold change /veh RGS16 (11746705_a_at) / RFU VCAN (11755009_s_at) / Fold change /veh VCAN (11755009_s_at) / RFU RHOB (11743442_s_at) / Fold change /veh RHOB (11743442_s_at) / RFU RGS16 (11720943_a_at) / Fold change /veh RGS16 (11720943_a_at) / RFU RGS16 (11720944_at) / Fold change /veh RGS16 (11720944_at) / RFU, VPS4B / Fold change vs veh, VPS4B / RFU, CREB1 / Fold change vs veh, CREB1 / RFU, DNAJC13 / Fold change vs veh, DNAJC13 / RFU, GNAQ / Fold change vs veh, GNAQ / RFU, CDK5R1 / Fold change vs veh, CDK5R1 / RFU, ZRANB3 / Fold change vs veh, ZRANB3 / RFU, CUL4A / Fold change vs veh, CUL4A / RFU, CCNY / Fold change vs veh, CCNY / RFU, UFL1 / Fold change vs veh, UFL1 / RFU, COG3 / Fold change vs veh, COG3 / RFU, DIAPH2 / Fold change vs veh, DIAPH2 / RFU, SKA2 / Fold change vs veh, SKA2 / RFU, AFF3 / Fold change vs veh, AFF3 / RFU, LMF1 / Fold change vs veh, LMF1 / RFU, IPO11 / Fold change vs veh, IPO11 / RFU, DFFB / Fold change vs veh, DFFB / RFU, FOXP1 / Fold change vs veh, FOXP1 / RFU, CARD8 / Fold change vs veh, CARD8 / RFU, STRN3 / Fold change vs veh, STRN3 / RFU, ADK / Fold change vs veh, ADK / RFU, RASSF2 / Fold change vs veh, RASSF2 / RFU, WIPF1 / Fold change vs veh, WIPF1 / RFU, LARP1B / Fold change vs veh, LARP1B / RFU, RASA1 / Fold change vs veh, RASA1 / RFU, RB1 / Fold change vs veh, RB1 / RFU, PPFIA1 / Fold change vs veh, PPFIA1 / RFU, MAT2A / Fold change vs veh, MAT2A / RFU, CCT5 / Fold change vs veh, CCT5 / RFU, WDR92 / Fold change vs veh, WDR92 / RFU, CUX1 / Fold change vs veh, CUX1 / RFU, TTC7A / Fold change vs veh, TTC7A / RFU, TMEM135 / Fold change vs veh, TMEM135 / RFU, DEPTOR / Fold change vs veh, DEPTOR / RFU, CPM / Fold change vs veh, CPM / RFU, DNAJB6 / Fold change vs veh, DNAJB6 / RFU, CACNA2D3 / Fold change vs veh, CACNA2D3 / RFU, DTX4 / Fold change vs veh, DTX4 / RFU, TFCP2 / Fold change vs veh, TFCP2 / RFU, GMCL1 /// GMCL1P1 / Fold change vs veh, GMCL1 /// GMCL1P1 / RFU, AEBP2 / Fold change vs veh, AEBP2 / RFU, SNHG1 /// SNORD22 /// SNORD25 /// SNORD26 /// SNORD27 /// SNORD28 /// SNORD29 /// SNORD31 / Fold change vs veh, SNHG1 /// SNORD22 /// SNORD25 /// SNORD26 /// SNORD27 /// SNORD28 /// SNORD29 /// SNORD31 / Fold change (Aza/veh), C12orf56 (ProbeSet 11735607_a_at) / Fold change (ACY-1035/veh), C12orf56 (ProbeSet 11735607_a_at) / Fold change (Aza/veh), FGFR1OP (ProbeSet 11751329_s_at) / Fold change (ACY-1035/veh), FGFR1OP (ProbeSet 11751329_s_at) / Fold change (Aza/veh), VPS36 (ProbeSet 11739960_a_at) / Fold change (ACY-1035/veh), VPS36 (ProbeSet 11739960_a_at) / RFU SYPL1 (11715823_x_at) / Fold change /veh SYPL1 (11715823_x_at) / RFU IGFBP7 (11715501_s_at) / Fold change /veh IGFBP7 (11715501_s_at) / RFU REEP3 (11722064_at) / Fold change /veh REEP3 (11722064_at) / RFU IGLL1 (11728026_x_at) / Fold change /veh IGLL1 (11728026_x_at): dose or concentration left out as unconfirmed
# Conditions: ProbeSet 11759094_a_at; LIST D
compound,measurement,value
Nc1ncn([C@@H]2O[C@H](CO)[C@@H](O)[C@H]2O)c(=O)n1 [azacitidine],"RFU, GNAQ",421.57 RFU
